These results are taken from US12655116B2, “Substituted isophthalic acid diamides” (Bayer Aktiengesellschaft, priority 2020, dated 2026).

For assay [1], the system named is ABUTH. The assay can be described thus: Pre-emergence herbicidal action against ABUTH. Type of assay: in vivo, Abutilon theophrasti. The essentials:
(§1)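 Sandy loam pots, seeds covered with soil, then surface-treated with WP or EC formulations at 600–800 l/ha water plus 0.2% wetting agent. Greenhouse, 3 weeks. Percent damage vs untreated controls.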

Assay [2] has as its system AMARE. Briefly: Pre-emergence herbicidal action against AMARE. Type of assay: in vivo, Amaranthus retroflexus. The method, boiled down: as §1
The subject of assay [3] is ECHCG. The assay can be described thus: Pre-emergence herbicidal action against ECHCG. Type of assay: in vivo, Echinochloa crus-galli. The following applies: 80 g/ha. The essentials: as §1
A further assay deals with LOLRI. Briefly: Pre-emergence herbicidal action against LOLRI. Type of assay: in vivo, Lolium rigidum. To be noted: 80 g/ha. From the text: Seeds of monocotyledonous and dicotyledonous weed plants and crop plants are laid out in sandy loam soil in wood-fiber pots and covered with soil. The compounds of the invention, formulated in the form of wettable powders (WP) or as emulsion concentrates (EC), are then applied to the surface of the covering soil in the form of an aqueous suspension or emulsion at a water application rate equivalent to 600 to 800 l/ha, with addition of 0.2% wetting agent. After the treatment, the pots are placed in a greenhouse and kept under good growth conditions for the trial plants. The damage to the test plants is scored visually after a test period of 3 weeks by comparison with untreated controls (herbicidal activity in percent (%): 100% activity=the plants have died, 0% activity=like control plants). […] The tables below illustrate, in an illustrative manner, the post-emergence herbicidal action of the compounds of the invention, the herbicidal activity being stated in percent.

For the next assay, the system named is MATIN. The assay can be described thus: Pre-emergence herbicidal action against MATIN. Type of assay: in vivo, Matricaria inodora. The method, boiled down: as §1
For assay [4], the system named is VERPE. The assay can be described thus: Pre-emergence herbicidal action against VERPE. Type of assay: in vivo, Veronica persica. To be noted: dosage 80 g/ha. The method, boiled down: as §1
The test system of assay [5] is ABUTH. The assay can be described thus: Post-emergence herbicidal action against ABUTH. Type of assay: in vivo, Abutilon theophrasti. To be noted: dosage 20 g/ha, visual assessment about 3 weeks after treatment vs untreated controls. The essentials: (§2)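 Visual % rating (0% = as untreated, 100% = dead) ~3 wk after spraying one-leaf-stage plants grown in sandy loam; WP/EC in water at 600–800 l/ha, 0.2% wetting agent.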

The test system of assay [6] is AMARE. Briefly: Post-emergence herbicidal action against AMARE. Type of assay: in vivo, Amaranthus retroflexus. To be noted: 20 g/ha, visual assessment about 3 weeks after treatment, 100% = plants have died, 0% = like control plants. The method, boiled down: as §2
Assay [7] deals with ECHCG. The assay can be described thus: Post-emergence herbicidal action against ECHCG. Type of assay: in vivo, Echinochloa crus-galli. To be noted: dosage 20 g/ha. The essentials: as §2
The next assay deals with PHBPU. Briefly: Post-emergence herbicidal action against PHBPU. Type of assay: in vivo, Pharbitis purpurea. The method, boiled down:
as §2

A further assay concerns ALOMY. Briefly: Pre-emergence herbicidal action against ALOMY. Type of assay: in vivo, Alopecurus myosuroides. The following applies: Alopecurus myosuroides, 504 h, pre-emergence. The essentials:
as §1

A further assay relates to AVEFA. Briefly: Pre-emergence herbicidal action against AVEFA. The following applies: Avena fatua, 504 h; 80 g/ha, pre-emergence. Type of assay: in vivo, Avena fatua. The method, boiled down:
as §1

The subject of another assay is SETVI. The assay can be described thus: Pre-emergence herbicidal action against SETVI. Type of assay: in vivo, Setaria viridis. To be noted: Setaria viridis, 504 h. The method, boiled down: as §1
For assay [8], the system named is VIOTR. The assay can be described thus: Pre-emergence herbicidal action against VIOTR. Type of assay: in vivo, Viola tricolor. The following applies: Viola tricolor, 504 h. The method, boiled down: as §1
Assay [9] relates to DIGSA. The assay can be described thus: Pre-emergence herbicidal action against DIGSA. Type of assay: in vivo, Digitaria sanguinalis. To be noted: Digitaria sanguinalis, 504 h. The essentials:
as §1

The subject of assay [10] is VERPE. The assay can be described thus: Post-emergence herbicidal action against VERPE. Type of assay: in vivo, Veronica persica. To be noted: Veronica persica, 504 h, 20 g/ha. The method, boiled down: as §2
Assay [11] concerns VIOTR. Briefly: Post-emergence herbicidal action against VIOTR. Type of assay: in vivo, Viola tricolor. To be noted: Viola tricolor, 504 h, 20 g/ha. The essentials:
as §2

Assay [12] concerns DIGSA. Briefly: Post-emergence herbicidal action against DIGSA. Type of assay: in vivo, Digitaria sanguinalis. To be noted: Digitaria sanguinalis, 504 h. The essentials:
as §2

[13] abbreviates: 80 g/ha, scored visually after 3 weeks vs untreated controls (100% = plants have died, 0% = like control plants).

In the case of `Cn1nnnc1NC(=O)c1ccc(C(F)F)c(C(=O)NCC2CCCO2)c1Cl` (centres unmarked) [Example 1-159], the “Pre-emergence action against ABUTH (herbicidal activity)” value in the assay on ABUTH [1] (setting [13]) came to 100%. The “Pre-emergence action against ABUTH (herbicidal activity in percent)” value in the assay with ABUTH [1] (dosage 20 g/ha, scored visually after 3 weeks vs untreated controls, 100% = plants have died, 0% = like control plants) is 80%. The “Pre-emergence action against AMARE in %” value is given as 100% in the assay with AMARE [2] (20 g/ha, scored visually after 3 weeks vs untreated controls, 100% = plants have died, 0% = like control plants) and 100% in the assay with AMARE [2] (setting [13]). In addition, in the assay with ECHCG [3], the “Pre-emergence action against ECHCG in %” value came out at 90%. Moreover, the “Pre-emergence action against LOLRI in %” value in the assay on LOLRI was determined as 80%. In addition, the “Pre-emergence action against MATIN in %” value in the assay with MATIN (dosage 80 g/ha) was 90%. For the same molecule, the “Pre-emergence action against VERPE in %” value in the assay on VERPE [4] turned out to be 80%. In addition, the “Post-emergence action against ABUTH in %” value in the assay on ABUTH [5] amounted to 80%. Further, the “Post-emergence action at 20 g/ha against AMARE in %” value with AMARE [6] stood at 100%. In addition, in the assay on ECHCG [7], the “Post-emergence action against ECHCG in %” value came to 90%. Further, the “Post-emergence action against PHBPU in %” value with PHBPU (dosage 5 g/ha) and with PHBPU (dosage 20 g/ha) was 80% throughout.

Regarding `Cn1nnnc1NC(=O)c1ccc(I)c(C(=O)NC2CC2)c1Cl` [Example 1-197], the pest or weed control at 80 g/ha in the assay on ABUTH [1] (Abutilon theophrasti, 504 h, 80 g/ha, scored visually after 3 weeks vs untreated controls (100% = plants have died, 0% = like control plants)) was 100%; in the assay on ALOMY (setting [13]), 100%; in the assay with AMARE [2] (Amaranthus retroflexus, 504 h, 80 g/ha, scored visually after 3 weeks vs untreated controls, 100% = plants have died, 0% = like control plants), 100%; with AVEFA, 100%; in the assay with ECHCG [3] (Echinochloa crus-galli, 504 h), 90%; in the assay with LOLRI (Lolium rigidum, 504 h) it was 80%. The pest or weed control at 80 g/ha in the assay with MATIN (Tripleurospermum inodorum, 504 h, dosage 80 g/ha) came out at 100%; in the assay with SETVI (dosage 80 g/ha), 100%; in the assay with VIOTR [8] (dosage 80 g/ha), 100%; with DIGSA [9] (dosage 80 g/ha) it was 100%. Moreover, the pest or weed control at 20 g/ha stood at 100% in the assay with ABUTH [1] (Abutilon theophrasti, 504 h, dosage 20 g/ha, scored visually after 3 weeks vs untreated controls, 100% = plants have died, 0% = like control plants, read-out: Pre-emergence action against ABUTH (herbicidal activity in percent)); 100% in the assay on ALOMY (20 g/ha, scored visually after 3 weeks, 100% = plants have died, 0% = like control plants); 100% with AMARE [2] (Amaranthus retroflexus, 504 h, 20 g/ha, scored visually after 3 weeks vs untreated controls, 100% = plants have died, 0% = like control plants); 90% in the assay with MATIN (Tripleurospermum inodorum, 504 h, dosage 20 g/ha); 100% with SETVI (dosage 20 g/ha); 100% in the assay on VIOTR [8] (dosage 20 g/ha). The pest or weed control at 20 g/ha in the assay with DIGSA [9] (dosage 20 g/ha) was found to be 100%; in the assay with ABUTH [5] (Abutilon theophrasti, 504 h) it was 100%; in the assay on AMARE [6] (Amaranthus retroflexus, 504 h), 100%; in the assay with ECHCG [7] (Echinochloa crus-galli, 504 h), 90%; in the assay with PHBPU (Ipomoea purpurea, 504 h, dosage 20 g/ha), 90%; with VERPE [10], 80%. Also, the pest or weed control at 20 g/ha in the assay with VIOTR [11] and in the assay with DIGSA [12] (20 g/ha) was 100% throughout. For the same molecule, in the assay with DIGSA [12] (5 g/ha), the pest or weed control at 5 g/ha turned out to be 100%.
